Values after ≈ are worked out from the molar mass of the structure shown. Structures can show the parent of a compound that is named as a salt. Where two headings read alike, the source gives them in different places. Where a SMILES comes first, the peptide text is derived from it. The star is where a group is joined. Doxorubicin(3'-N) = COc1cccc2c1C(=O)c1c(O)c3c(c(O)c1C2=O)C[C@@](O)(C(=O)CO)C[C@@H]3O[C@H]1C[C@H](N*)[C@H](O)[C@H](C)O1; dGluconoyl = O=C([C@H](O)[C@@H](O)[C@H](O)[C@H](O)CO)*; NH(9-Et-carbazol-3-yl) = CCn1c2ccccc2c2cc(N*)ccc21; AMC = Cc1cc(=O)oc2cc(N*)ccc12
How the values were obtained:
mice = experiment: Toxicity of prodrugs on mice; format: in vivo; settings: for Number of surviving mice at day 8 / Number of surviving mice at day 30 / Weight variation at day 8: two intravenous injections at days 0 and 2, mg/kg/injection: ADR 19,7, GlcA-Gly-Pro-Lys-ADR 35,1, GlcA-Ile-Phe-Lys-ADR 37,0; for Apparent lesions: two intravenous injections at days 0 and 2, footnotes to day 30 column
Excerpt: GlcA-Gly-Pro-Lys-Adriamycin and GlcA-Ile-Phe-Lys-Adriamycin was studied on mice after two intravenous injections at days 0 and 2.

[1] = Solubility in distilled water / aqueous solution; format: physicochemical; settings: for solubility in distilled water: at 20° C.
Experimental: The solubility of the PHA-L-Ala-L-Ala-L-Pro-L-Ala-AEC is greater than 80 mg/ml in distilled water or a buffer with a pH between 3 and 9.
The solubility of this compound in distilled water is 2.0 mM/l at 20° C.
The influence of the length of the N-acylating polyhydroxyalcanoyl group on the water solubility of fluorogenic substrates is shown in Table III in the case of a chymotrypsin specific substrate PHA-L-Ala-L-Ala-L-Phe-7-amido-4-methylcoumarin.

[2] = pH 8.1, aqueous buffer
[3] = Table IV; same values as Table I
[4] = tested on: leucemic cells L1210, Lewis lung carcinoma "3LL"; experiment: Penetration into and death of tumor cells; format: cell-based
[5] = Table III, water solubility, 20° C., read-out: SOLUBILITY (mM AT 20° C.)

SMILES	solubility [2] [mM]	solubility [3] [mM]	further results
COc1cccc2c1C(=O)c1c(O)c3c(c(O)c1C2=O)C[C@@](O)(C(=O)CO)C[C@@H]3O[C@H]1C[C@H](N)[C@H](O)[C@H](C)O1 [ADR, Adriamycin, reference compound]	–	–	Number of surviving mice at day 8 (mice): 0/8; Number of surviving mice at day 30 (mice): 0/8; Weight variation at day 8 (mice): -17,8%
CC(=O)N[C@@H](C)C(=O)N[C@@H](C)C(=O)N[C@@H](Cc1ccccc1)C(=O)Nc1ccc2c(C)cc(=O)oc2c1 [AcAlaAlaPheAMC, reference compound] (Ac-Ala-Ala-Phe-{AMC})	–	–	solubility [1, 5]: 0.2 mM
CC[C@H](C)[C@H](NC(=O)OC(C)(C)C)C(=O)N[C@@H](Cc1ccccc1)C(=O)N[C@@H](CCCCN)C(=O)Nc1ccc2c(c1)c1ccccc1n2CC [Boc--Ile--Phe--Lys--AEC, reference compound]	0.04 (≈ 0.028 mg/mL)	–	–
CCn1c2ccccc2c2cc(NC(=O)[C@H](CCCCN)NC(=O)[C@H](CC(C)C)NC(=O)[C@@H](NC(=O)OC(C)(C)C)C(C)C)ccc21 [Boc--Val--Leu--Lys--AEC, reference compound]	2.5 (≈ 1.63 mg/mL)	–	–
CC[C@H](C)[C@H](NC(=O)CNC(=O)[C@H](O)[C@@H](O)[C@H](O)[C@H](O)CO)C(=O)N[C@@H](Cc1ccccc1)C(=O)N[C@@H](CCCCN)C(=O)Nc1ccc2c(c1)c1ccccc1n2CC [GlcA--Gly--Ile--Phe--Lys--AEC] (dGluconoyl-GIFK-{NH(9-Et-carbazol-3-yl)})	2.5 (≈ 2.08 mg/mL)	–	–
COc1cccc2c1C(=O)c1c(O)c3c(c(O)c1C2=O)C[C@@](O)(C(=O)CO)C[C@@H]3O[C@H]1C[C@H](NC(=O)[C@H](CCCCN)NC(=O)[C@@H]2CCCN2C(=O)CNC(=O)[C@H](O)[C@@H](O)[C@H](O)[C@H](O)CO)[C@H](O)[C@H](C)O1 [GlcA--Gly--Pro--Lys--ADR, PHA-Gly-L-Pro-L-Lys-Adriamycin]	–	–	Apparent lesions (mice): No apparent lesion; Number of surviving mice at day 8 (mice): 8/8; Number of surviving mice at day 30 (mice): 8/8; Weight variation at day 8 (mice): +15,2%
CCn1c2ccccc2c2cc(NC(=O)[C@H](CCCCN)NC(=O)[C@@H]3CCCN3C(=O)CNC(=O)[C@H](O)[C@@H](O)[C@H](O)[C@H](O)CO)ccc21 [GlcA--Gly--Pro--Lys--AEC]	380 (≈ 255 mg/mL)	380 (≈ 255 mg/mL)	–
CCn1c2ccccc2c2cc(NC(=O)[C@H](CCCNC(=N)N)NC(=O)[C@H](Cc3ccccc3)NC(=O)[C@@H](NC(=O)CNC(=O)[C@H](O)[C@@H](O)[C@H](O)[C@H](O)CO)C(C)C)ccc21 [GlcA--Gly--Val--Phe--Arg--AEC] (dGluconoyl-GVFR-{NH(9-Et-carbazol-3-yl)})	3.6 (≈ 3.05 mg/mL)	3.6 (≈ 3.05 mg/mL)	–
CCn1c2ccccc2c2cc(NC(=O)[C@H](CCCCN)NC(=O)[C@H](Cc3ccccc3)NC(=O)[C@@H](NC(=O)CNC(=O)[C@H](O)[C@@H](O)[C@H](O)[C@H](O)CO)C(C)C)ccc21 [GlcA--Gly--Val--Phe--Lys--AEC] (dGluconoyl-GVFK-{NH(9-Et-carbazol-3-yl)})	4.2 (≈ 3.44 mg/mL)	4.2 (≈ 3.44 mg/mL)	–
CC[C@H](C)[C@H](NC(=O)[C@H](O)[C@@H](O)[C@H](O)[C@H](O)CO)C(=O)N[C@@H](CC(C)C)C(=O)N[C@@H](CCCNC(=N)N)C(=O)Nc1ccc2c(c1)c1ccccc1n2CC [GlcA--Ile--Leu--Arg--AEC]	143 (≈ 110 mg/mL)	143 (≈ 110 mg/mL)	–
CC[C@H](C)[C@H](NC(=O)[C@H](O)[C@@H](O)[C@H](O)[C@H](O)CO)C(=O)N[C@@H](CC(C)C)C(=O)N[C@@H](CCCCN)C(=O)Nc1ccc2c(c1)c1ccccc1n2CC [GlcA--Ile--Leu--Lys--AEC]	94 (≈ 69.8 mg/mL)	94 (≈ 69.8 mg/mL)	–
CC[C@H](C)[C@H](NC(=O)[C@H](O)[C@@H](O)[C@H](O)[C@H](O)CO)C(=O)N[C@@H](Cc1ccccc1)C(=O)N[C@@H](CCCNC(=N)N)C(=O)Nc1ccc2c(c1)c1ccccc1n2CC [GlcA--Ile--Phe--Arg--AEC]	1.1 (≈ 0.885 mg/mL)	–	–
CC[C@H](C)[C@H](NC(=O)[C@H](O)[C@@H](O)[C@H](O)[C@H](O)CO)C(=O)N[C@@H](Cc1ccccc1)C(=O)N[C@@H](CCCCN)C(=O)N[C@H]1C[C@H](O[C@H]2C[C@](O)(C(=O)CO)Cc3c(O)c4c(c(O)c32)C(=O)c2c(OC)cccc2C4=O)O[C@@H](C)[C@H]1O [GlcA--Ile--Phe--Lys--ADR, Glc A-L-Ile-L-Phe-L-Lys-Adriamycin]	–	–	Apparent lesions (mice): No apparent lesion; Number of surviving mice at day 8 (mice): 8/8; Number of surviving mice at day 30 (mice): 8/8; Weight variation at day 8 (mice): +14,7%
CC[C@H](C)[C@H](NC(=O)[C@H](O)[C@@H](O)[C@H](O)[C@H](O)CO)C(=O)N[C@@H](Cc1ccccc1)C(=O)N[C@@H](CCCCN)C(=O)Nc1ccc2c(c1)c1ccccc1n2CC [GlcA--Ile--Phe--Lys--AEC, Glc A-Ile-Phe-Lys-AEC, HCl]	0.54	–	–
CCn1c2ccccc2c2cc(NC(=O)[C@H](CCCCN)NC(=O)CNC(=O)[C@H](CO)NC(=O)[C@H](O)[C@@H](O)[C@H](O)[C@H](O)CO)ccc21 [GlcA--Ser--Gly--Lys--AEC]	54 (≈ 35.7 mg/mL)	–	–
CCn1c2ccccc2c2cc(NC(=O)[C@H](CCCNC(=N)N)NC(=O)[C@H](CC(C)C)NC(=O)[C@@H](NC(=O)[C@H](O)[C@@H](O)[C@H](O)[C@H](O)CO)C(C)C)ccc21 [GlcA--Val--Leu--Arg--AEC]	227 (≈ 172 mg/mL)	227 (≈ 172 mg/mL)	–
CCn1c2ccccc2c2cc(NC(=O)[C@H](CCCNC(=N)N)NC(=O)CNC(=O)[C@H](CC(C)C)NC(=O)[C@@H](NC(=O)[C@H](O)[C@@H](O)[C@H](O)[C@H](O)CO)C(C)C)ccc21 [GlcA--Val--Leu--Gly--Arg--AEC] (dGluconoyl-VLGR-{NH(9-Et-carbazol-3-yl)})	67 (≈ 54.5 mg/mL)	67 (≈ 54.5 mg/mL)	–
CCn1c2ccccc2c2cc(NC(=O)[C@H](CCCCN)NC(=O)CNC(=O)[C@H](CC(C)C)NC(=O)[C@@H](NC(=O)[C@H](O)[C@@H](O)[C@H](O)[C@H](O)CO)C(C)C)ccc21 [GlcA--Val--Leu--Gly--Lys--AEC] (dGluconoyl-VLGK-{NH(9-Et-carbazol-3-yl)})	62 (≈ 48.7 mg/mL)	–	–
CCn1c2ccccc2c2cc(NC(=O)[C@H](CCCCN)NC(=O)[C@H](CC(C)C)NC(=O)[C@@H](NC(=O)[C@H](O)[C@@H](O)[C@H](O)[C@H](O)CO)C(C)C)ccc21 [GlcA--Val--Leu--Lys--AEC]	250 (≈ 182 mg/mL)	250 (≈ 182 mg/mL)	–
CCn1c2ccccc2c2cc(NC(=O)[C@H](CCCNC(=N)N)NC(=O)[C@H](Cc3ccccc3)NC(=O)[C@@H](NC(=O)[C@H](O)[C@@H](O)[C@H](O)[C@H](O)CO)C(C)C)ccc21 [GlcA--Val--Phe--Arg--AEC]	100 (≈ 79.1 mg/mL)	100 (≈ 79.1 mg/mL)	–
CCn1c2ccccc2c2cc(NC(=O)[C@H](CCCCN)NC(=O)[C@H](Cc3ccccc3)NC(=O)[C@@H](NC(=O)[C@H](O)[C@@H](O)[C@H](O)[C@H](O)CO)C(C)C)ccc21 [GlcA--Val--Phe--Lys--AEC]	165 (≈ 126 mg/mL)	165 (≈ 126 mg/mL)	–
COc1cccc2c1C(=O)c1c(O)c3c(c(O)c1C2=O)C[C@@](O)(C(=O)CO)C[C@@H]3O[C@H]1C[C@H](NC(=O)[C@@H](N)CC(C)C)[C@H](O)[C@H](C)O1 [L-Leu-Adriamycine, L-Leu-Adriamycin]	–	–	penetration into tumor cells ([4]; leucemic cells L1210, Lewis lung carcinoma 3LL): penetrates the tumor cells; death of tumor cells ([4]; tumor cells): causes the death of these cells
CCn1c2ccccc2c2cc(NC(=O)[C@H](C)NC(=O)[C@@H]3CCCN3C(=O)[C@H](C)NC(=O)[C@H](C)NC(=O)[C@H](O)[C@@H](O)[C@H](O)[C@H](O)CO)ccc21 [PHA-L-Ala-L-Ala-L-Pro-L-Ala-AEC] (dGluconoyl-AAPA-{NH(9-Et-carbazol-3-yl)})	–	–	solubility ([1]; aqueous with cosolvent or surfactant or cyclodextrin, in distilled water or a buffer with a pH between 3 and 9, read-out: solubility): > 80 mg/mL
COc1cccc2c1C(=O)c1c(O)c3c(c(O)c1C2=O)C[C@@](O)(C(=O)CO)C[C@@H]3O[C@H]1C[C@H](NC(=O)[C@H](CC(C)C)NC(=O)[C@H](CCCNC(=N)N)NC(=O)[C@@H]2CCCN2C(=O)[C@H](Cc2ccccc2)NC(=O)[C@H](O)[C@@H](O)[C@H](O)[C@H](O)CO)[C@H](O)[C@H](C)O1 [PHA-L-Phe-L-Pro-L-Arg-L-Leu-Adriamycin] (dGluconoyl-FPRL-{Doxorubicin(3'-N)})	–	–	solubility in water ([1]; water): soluble in water
CCn1c2ccccc2c2cc(NC(=O)[C@H](CCCCN)NC(=O)[C@@H]3CCCN3C(=O)CNC(=O)OCc3ccccc3)ccc21 [Z--Gly--Pro--Lys--AEC, reference compound]	0.2 (≈ 0.125 mg/mL)	–	–
CC[C@H](C)[C@H](NC(=O)OCc1ccccc1)C(=O)N[C@@H](Cc1ccccc1)C(=O)N[C@@H](CCCCN)C(=O)Nc1ccc2c(c1)c1ccccc1n2CC [Z--Ile--Phe--Lys--AEC, reference compound]	0.03 (≈ 0.022 mg/mL)	–	–
Cc1cc(=O)oc2cc(NC(=O)[C@H](Cc3ccccc3)NC(=O)[C@H](C)NC(=O)[C@H](C)NC(=O)[C@H](O)[C@@H](O)[C@H](O)[C@H](O)CO)ccc12 [gluconoyl-L-Ala-L-Ala-L-Phe-AMC]	–	–	solubility [1, 5]: 2.4 mM; solubility in distilled water [1]: 2.4 mM/l
Cc1cc(=O)oc2cc(NC(=O)[C@H](Cc3ccccc3)NC(=O)[C@H](C)NC(=O)[C@H](C)NC(=O)C(O)C(O)C(O)C(O)C(O)C(O)CO)ccc12 (stereo partly drawn) [glucooctanoyl-L-Ala-L-Ala-L-Phe-AMC]	–	–	solubility [1, 5]: 3.2 mM; solubility in distilled water [1]: 3.2 mM/l
Cc1cc(=O)oc2cc(NC(=O)[C@H](Cc3ccccc3)NC(=O)[C@H](C)NC(=O)[C@H](C)NC(=O)[C@H](O)[C@H](O)[C@H](O)CO)ccc12 [ribonoyl-L-Ala-L-Ala-L-Phe-AMC]	–	–	solubility [1, 5]: 2 mM; solubility in distilled water [1]: 2.0 mM/l
